Measured values taken from patent US20240261297A1, “ANTI-CDK INHIBITORS FOR CANCER TREATMENT” (St. John's Cancer Institute, priority 2021, published 2024).
Read-outs that look alike come from different tables or passages of the source.

Legend:
[1] = system: PLC/PRF/5 cells; test: Cell viability of HCC cells by CellTiter Glo assay; format: cell-based; settings: Homo sapiens, 72 hours
Protocol: FIG. 5 is a graph showing cell viability of hepatocellular carcinoma (HCC) cell lines treated with I-3 for 72 hours, assessed by CellTiter Glo assay, with the control level of cells considered 100%.
I-3 was also tested for efficacy on hepatocellular carcinoma (HCC) cell lines. Cell viability was measured by CellTiter Glo assay (FIG. 5 and Table 8).

[2] = biological target: CKD9/Cyclin H (Homo sapiens, UniProt P50750); test: Biochemical profile against CDKs and binding partners (Table 3)
Chain of CKD9/Cyclin H (P50750 whole entry, canonical isoform): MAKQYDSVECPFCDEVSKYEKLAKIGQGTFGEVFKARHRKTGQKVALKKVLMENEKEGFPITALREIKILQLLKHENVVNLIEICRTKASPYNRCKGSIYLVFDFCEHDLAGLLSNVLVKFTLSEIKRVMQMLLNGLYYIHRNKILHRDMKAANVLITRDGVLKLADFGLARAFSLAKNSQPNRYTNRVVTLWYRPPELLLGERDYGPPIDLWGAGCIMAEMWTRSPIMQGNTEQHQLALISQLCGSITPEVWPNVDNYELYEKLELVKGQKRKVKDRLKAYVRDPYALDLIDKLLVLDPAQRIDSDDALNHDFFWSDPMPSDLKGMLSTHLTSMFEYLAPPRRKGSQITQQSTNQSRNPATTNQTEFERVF
Protocol: A series of test compounds were selected for initial screening against CDK isoforms. Protein kinase assays were performed with gold standard radioisotope-based assay formats to measuring enzyme activity remaining in presence and absence of inhibitor.

[3] = system: caspase 3/7 in PLC/PRF/5 cells; test: Caspase Glo 3/7 activity assay in PLC/PRF/5 cells; format: cell-based
[4] = biological target: CDK2/cyclin E (Homo sapiens, UniProt P24941); test: Cellular thermal shift assay (CETSA), isothermal dose response; format: binding; parameters: endogenous in cells; settings: cell lysate, from 300 nM, 1 hour, 58° C. 20 min, Western blot
Protocol: Compound 1-3 efficacy was assessed in several in vitro assays. A nanoBrET assay was used to measure intracellular kinase activity of I-3 with CDK2, CDK1, CDK7 and CDK9. Briefly, HEK293 cells were transfected with CDK2, CDK1, CDK7 and CDK9. The transfected cells were treated in duplicate with test compound I-3 (starting at 10 μM, 10-dose with 3-fold dilution) and target engagement was measured by NanoBRET assay (FIG. 2A and Table 4). Cellular thermal shift assay (CETSA) was also performed to evaluate drug target interaction in the cells. The CETSA method is built upon two concepts: cellular thermal shift and isothermal dose-response. The cellular thermal shift assay is based on the established fact that proteins that are complexed to a ligand become more resistant to heat induced unfolding. Isothermal dose response is used to determine a compound's potency in binding the target by measuring the thermal stability of the target treated with various concentrations of compound at a fixed temperature. Briefly, cell lysate was treated with I-3 (starting at 300 nM, 10-dose with 3-fold dilution) and incubated for 1 hour and cell lysates were then subjected to predetermined thermal aggregation temperature (58° C.) for another 20 min. Western blot was performed to determine the levels of target protein bound to I-3 (FIG. 2B).

[5] = system: MDA-MB-231 breast cancer xenograft; test: Anti-tumor efficacy in MDA-MB-231 breast cancer xenograft model; format: in vivo, mice; settings: p<0.0001
Protocol: (§1) Anti-tumor efficacy of I-3 was evaluated in a MDA-MB-231 breast cancer xenograft model. Briefly, mice with MDA-MB-231 tumors were randomized to three treatment groups: control (Vehicle, n=8), 1-3 IV (10 mg/kg, n=8) and 1-3 PO (10 mg/kg, n=8) on a schedule of 14 days for daily (PO) or twice weekly (IV). Oral gavage treatments were formulated in 0.1% Tween 80 and 99.9% of 0.5% (w/v) of methyl cellulose in water. Intravenous treatments were formulated in 5% (v/v) DMSO, 2.5% (v/v) absolute ethanol, 2.5% (v/v) Solutol, and 90% Normal saline. Tumor growth was measured twice weekly by using a digital vernier caliper and high resolution images of tumor bearing mice were captured using a digital camera at weekly intervals of the study (Days 0, 7 and 14). Tumor volume was calculated as follows:
Tumor Volume=[Length(L)×Width(W)^2]/2
where length (L) is the largest diameter of the tumor and width (W) is the smallest diameter of the tumor.

[6] = system: MDA-MB-468; test: Cell viability in breast cancer cell lines; format: cell-based; settings: Homo sapiens
Description: (§2) Tables 5 and 6 show assessment of in vitro efficacy of I-3 in a panel of breast cancer cell lines.

[7] = system: MDA-MB-231; test: Cell viability in breast cancer cell lines; format: cell-based; settings: Homo sapiens; MDA-MB-231 (Mesenchymal-like), 72 hours; read-out: CTG and Alamar Blue Assay IC50
Description: as §2

[8] = system: T47D; test: Cell viability in breast cancer cell lines; format: cell-based; settings: Homo sapiens; T47D (Ductal carcinoma), 72 hours; read-out: CTG and Alamar Blue Assay IC50
Description: as §2

[9] = system: BT-549; test: Cell viability in breast cancer cell lines; format: cell-based; settings: Homo sapiens; BT-549 (Mesenchymal), 72 hours; read-out: CTG and Alamar Blue Assay IC50
Description: as §2

[10] = In vivo safety (body weight, complete blood counts) in xenograft study; parameters: species or system mice
Protocol: as §1, with “follows: […]” for “follows:”
At the end of the study, blood samples were collected from the animals for analysis of complete blood counts (CBC) using an automated hematology analyser (ADVIA2120, Siemens Ltd.). […] Once daily oral doses of 10 mg/Kg and twice weekly IV doses of 10 mg/kg were well-tolerated by the animals during the course of the treatment, with no changes in body weight or blood counts compared to vehicle control over the course of the study (Tables 14 and 15).

Nc1nccc(-c2c[nH]c3nccc(Oc4cccc(F)c4)c23)n1 [I-3, 4-(4-(3-fluorophenoxy)-1H-pyrrolo[2,3-b]pyridin-3-yl)pyrimidin-2-amine]
IC50 [1]: 1.52 µM | IC50 [2]: 0.007 µM | Caspase 3/7 activation (comparison) [3]: greater activation of caspase 3/7 by 1-3 than by PF-06873600 | IC50 ([3]; Homo sapiens): 2.45 µM | Binding of CDK2/Cyclin E in drug target engagement methods (CETSA, NanoBRET) [4]: potent binding (nanomolar range) | tumor growth inhibition (TGI) ([5]; IV 10 mg/kg twice weekly, 14 days, vs control): 60% | tumor growth inhibition (TGI) ([5]; PO 10 mg/kg once daily, end of two weeks): 54% | IC50 ([6]; MDA-MB-468 (Basal-like 1), 72 hours, read-out: CTG and Alamar Blue Assay IC50): 0.276 µM | IC50 ([6]; MDA-MB-468, 72 hours, Table 6, read-out: Cell viability by CellTiter Glo IC50): 0.276 µM | IC50 [7]: 0.565 µM | IC50 [8]: 55.5 µM | IC50 [9]: 0.765 µM | Body Weight, mean ± SE ([10]; IV 10 mg/kg, Day 0): 22.1 ± 0.6 g | Body Weight, mean ± SE ([10]; IV 10 mg/kg, Day 7): 22.3 ± 1.0 g | Body Weight, mean ± SE ([10]; IV 10 mg/kg, Day 14): 22.9 ± 0.7 g | Hematocrit (Mean ± SE) ([10]; IV 10 mg/kg, end of study): 38.4 ± 3.7% | Hemoglovin (Mean ± SE) ([10]; IV 10 mg/kg, end of study): 12.8 ± 0.8 g/dL | Mean corpuscular hemoglobin (Mean ± SE) ([10]; IV 10 mg/kg, end of study): 15.2 ± 0.2 pg | Mean corpuscular hemoglobin concentration (Mean ± SE) ([10]; IV 10 mg/kg, end of study): 30.3 ± 0.2 g/dL | Mean corpuscular volume (Mean ± SE) ([10]; IV 10 mg/kg, end of study): 50.2 ± 0.3 fL | Platelets (Mean ± SE) ([10]; IV 10 mg/kg, end of study): 802.4 ± 107.9 10^3 cells/μL | Red blood cells (Mean ± SE) ([10]; IV 10 mg/kg, end of study): 8.4 ± 0.5 10^6 cells/μL | White blood cells (Mean ± SE) ([10]; IV 10 mg/kg, end of study): 22.9 ± 8.3 10^3 cells/μL | Tolerability ([10]; PO 10 mg/Kg once daily and IV 10 mg/kg twice weekly, 14 days): well-tolerated | Body Weight, mean ± SE ([10]; PO 10 mg/kg, Day 0): 21.6 ± 0.4 g | Body Weight, mean ± SE ([10]; PO 10 mg/kg, Day 7): 20.9 ± 0.9 g | Body Weight, mean ± SE ([10]; PO 10 mg/kg, Day 14): 21.6 ± 0.9 g | Hematocrit (Mean ± SE) ([10]; PO 10 mg/kg, end of study): 34.2 ± 0.9% | Hemoglovin (Mean ± SE) ([10]; PO 10 mg/kg, end of study): 10.6 ± 0.3 g/dL | Mean corpuscular hemoglobin (Mean ± SE) ([10]; PO 10 mg/kg, end of study): 15.3 ± 0.1 pg | Mean corpuscular hemoglobin concentration (Mean ± SE) ([10]; PO 10 mg/kg, end of study): 31.1 ± 0.2 g/dL | Mean corpuscular volume (Mean ± SE) ([10]; PO 10 mg/kg, end of study): 44.8 ± 4.1 fL | Platelets (Mean ± SE) ([10]; PO 10 mg/kg, end of study): 762.1 ± 99.3 10^3 cells/μL | Red blood cells (Mean ± SE) ([10]; PO 10 mg/kg, end of study): 6.9 ± 0.2 10^6 cells/μL | White blood cells (Mean ± SE) ([10]; PO 10 mg/kg, end of study): 36.6 ± 6.8 10^3 cells/μL | Complete blood counts vs control group ([10]; end of study, IV and PO 10 mg/kg): no significant differences
